In ChEMBL document CHEMBL5226286, “The application of isatin-based multicomponent-reactions in the quest for new bioactive and druglike molecules” (Eur J Med Chem, 2021):
Converted amounts (≈) assume the structure as drawn.

Legend:
[1] = test system: Staphylococcus aureus; assay: Antibacterial activity against Staphylococcus aureus by agar well diffusion method; assay type: functional
[2] = test system: Bacillus subtilis; assay: Antibacterial activity against Bacillus subtilis by agar well diffusion method; assay type: functional
[3] = test system: Escherichia coli; assay: Antibacterial activity against Escherichia coli by agar well diffusion method; assay type: functional
[4] = test system: HeLa; assay: Growth inhibition of human HeLa cells at 20 micromol relative to control; assay type: functional; details: dose 20 µmol
[5] = test system: HepG2; assay: Growth inhibition of human HepG2 cells at 20 micromol relative to control; assay type: functional; details: dose 20 µmol
[6] = test system: MDA-MB-231; assay: Growth inhibition of human MDA-MB-231 cells at 20 micromol relative to control; assay type: functional; details: dose 20 µmol
[7] = test system: A549; assay: Antiproliferative activity against human A549 cells; assay type: functional, cell-based
[8] = test system: K562; assay: Antiproliferative activity against human K562 cells; assay type: functional, cell-based
[9] = test system: PC-3; assay: Antiproliferative activity against human PC-3 cells; assay type: functional, cell-based
[10] = test system: LNCaP; assay: Antiproliferative activity against human LNCaP cells; assay type: functional, cell-based
[11] = target: T1, NAD-dependent protein deacetylase sirtuin-2 (Homo sapiens, UniProt Q8IXJ6); assay: Inhibition of sirtuin 2 (unknown origin)
T1 sequence (Q8IXJ6 whole entry): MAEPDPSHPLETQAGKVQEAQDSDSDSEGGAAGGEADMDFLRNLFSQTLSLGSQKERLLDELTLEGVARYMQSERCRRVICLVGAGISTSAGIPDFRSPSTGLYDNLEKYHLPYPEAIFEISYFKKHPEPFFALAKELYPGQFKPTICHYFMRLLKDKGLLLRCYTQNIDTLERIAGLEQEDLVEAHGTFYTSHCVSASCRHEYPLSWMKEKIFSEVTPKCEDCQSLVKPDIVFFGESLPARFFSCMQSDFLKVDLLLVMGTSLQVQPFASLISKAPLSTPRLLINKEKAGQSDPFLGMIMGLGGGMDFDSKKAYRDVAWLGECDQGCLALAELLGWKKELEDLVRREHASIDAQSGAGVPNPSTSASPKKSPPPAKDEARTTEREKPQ

[12] = test system: Saccharomyces cerevisiae; assay: Antifungal activity against Saccharomyces cerevisiae MTCC 170; assay type: functional
[13] = test system: Candida albicans; assay: Antifungal activity against Candida albicans MTCC 227; assay type: functional
[14] = test system: HepG2; assay: cells; assay type: functional, cell-based; details: Homo sapiens
[15] = test system: HCT-116; assay: Antiproliferative activity against human HCT-116 cells; assay type: functional, cell-based
[16] = test system: Tobacco mosaic virus; assay: Antiviral activity against Tobacco mosaic virus assessed as protection effect relative to control; assay type: functional
[17] = test system: Tobacco mosaic virus; assay: Antiviral activity against Tobacco mosaic virus assessed as curative effect relative to control; assay type: functional
[18] = test system: Tobacco mosaic virus; assay: Antiviral activity against Tobacco mosaic virus assessed as inactivation effect relative to control; assay type: functional
[19] = test system: Bacillus subtilis; assay: Antibacterial activity against Bacillus subtilis; assay type: functional
[20] = test system: Escherichia coli; assay: microbe, parasite or virus in culture
[21] = test system: Staphylococcus aureus; assay: microbe, parasite or virus in culture
[22] = test system: SMMC-7721; assay: Antiproliferative activity against human SMMC-7721 cells; assay type: functional, cell-based
[23] = test system: ECa-109 cell line; assay: Antiproliferative activity against human EC109 cells; assay type: functional, cell-based
[24] = test system: MGC-803; assay: Antiproliferative activity against human MGC-803 cells; assay type: functional, cell-based
[25] = test system: Leishmania major; assay: Antileishmanial activity against Leishmania major promastigotes incubated for 72 hrs by micrscopic analysis; assay type: functional
[26] = test system: HeLa; assay: Cytotoxicity against human HeLa cells incubated for 24 hrs by MTT reduction assay; assay type: functional, cell-based
[27] = test system: A549; assay: Antiproliferative activity against human A549 cells by MTT reduction assay; assay type: functional, cell-based
[28] = test system: SK-N-SH; assay: Antiproliferative activity against human SK-N-SH cells by MTT reduction assay; assay type: functional, cell-based
[29] = test system: HepG2; assay: Antiproliferative activity against human HepG2 cells by MTT reduction assay; assay type: functional, cell-based
[30] = test system: MCF7; assay: Antiproliferative activity against human MCF7 cells by MTT reduction assay; assay type: functional, cell-based
[31] = test system: CCRF-CEM; assay: Antiproliferative activity against human CCRF-CEM cells; assay type: functional, cell-based
[32] = test system: SK-OV-3; assay: Antiproliferative activity against human SK-OV-3 cells; assay type: functional, cell-based

SMILES: CC1(C)CC(=O)C2=C(C1)N(c1ccccc1)C(=O)C21C2=C(Nc3ccc([N+](=O)[O-])cc31)c1ccccc1C2=O (stereo not drawn)
- MIC [1]: 16 µg/mL (≈ 30.9 µM)
- MIC [2]: 16 µg/mL (≈ 30.9 µM)
- MIC [3]: 128 µg/mL (≈ 247 µM)

SMILES: Cc1ccc(/C=C2/CN(C)CC3=C2OC(N)=C(C#N)C32C(=O)Nc3ccccc32)cc1C (stereo not drawn)
- growth inhibition (GI) [4]: 87.1%
- growth inhibition (GI) [5]: 70.2%
- growth inhibition (GI) [6]: 64.9%

SMILES: Cc1noc([C@H]2[C@H](c3ccc(Cl)cc3Cl)CN(C)[C@]23C(=O)Nc2ccc(Cl)cc23)c1[N+](=O)[O-]
- IC50 [7]: 21.5 µM
- IC50 [8]: 10.7 µM
- IC50 [9]: 13.1 µM

SMILES: O=C1c2ccccc2C2Oc3c(c(=O)oc4ccccc34)C3(C(=O)Nc4ccc(Br)cc43)C12 (stereo not drawn)
- IC50 [10]: 1.9 µM
- IC50 [9]: 0.03 µM

SMILES: CCOC(=O)C1=C(N)Oc2cc(C)oc(=O)c2C12C(=O)N(Cc1ccccc1)c1ccccc12 (stereo not drawn)
- IC50 [11]: 126 µM

SMILES: COc1ccc(-n2cc(CN3C(=O)C4(C(C#N)=C(N)OC5=C4C(=O)CC(C)(C)C5)c4ccccc43)nn2)cc1 (stereo not drawn)
- MIC [12]: 64 µg/mL (≈ 122 µM)
- MIC [13]: 128 µg/mL (≈ 245 µM)

SMILES: O=C(c1c[nH]c2ccccc12)[C@@H]1[C@@H](c2ccc(C(F)(F)F)cc2)[C@@H]2CSCN2[C@@]12C(=O)Nc1ccccc12
- IC50 [14]: 5.5 µM
- IC50 [15]: 7 µM
- IC50 [9]: 6 µM

SMILES: CN1C[C@@H](c2ccccc2)[C@@]2(Oc3cc(O)ccc3C2=O)[C@@]12C(=O)N(Cc1ccccc1)c1ccccc12
- Activity [16]: 50.9%
- Activity [17]: 52.3%
- Activity [18]: 57.1%

SMILES: O=C(N[C@H](CO)[C@H](O)c1ccc([N+](=O)[O-])cc1)C(Cl)Cl [CHLORAMPHENICOL]
- MIC [19]: 4 µg/mL (≈ 12.4 µM)
- MIC [20]: 4 µg/mL (≈ 12.4 µM)
- MIC [21]: 8 µg/mL (≈ 24.8 µM)

SMILES: O=C1CCCC2=C1C1(C(=O)N2c2ccc(Cl)cc2)C2=C(Nc3ccc([N+](=O)[O-])cc31)c1ccccc1C2=O (stereo not drawn)
- MIC [1]: 32 µg/mL (≈ 61.1 µM)
- MIC [2]: 32 µg/mL (≈ 61.1 µM)
- MIC [3]: 128 µg/mL (≈ 244 µM)

SMILES: CNCC(=O)N[C@@H](CO)C(=O)N[C@H]1[C@H](O)[C@@H](O)[C@H](n2ccc(N)nc2=O)O[C@@H]1C(N)=O [NINGNANMYCIN]
- Activity [16]: 57.1%
- Activity [17]: 55.9%
- Activity [18]: 58.8%

SMILES: CC(O)(CS(=O)(=O)c1ccc(F)cc1)C(=O)Nc1ccc(C#N)c(C(F)(F)F)c1 (stereo not drawn) [BICALUTAMIDE]
- IC50 [10]: 1.5 µM
- IC50 [9]: 1.3 µM

SMILES: CCOC(=O)C1=C(N)Oc2cc(C)oc(=O)c2C12C(=O)Nc1ccc(Br)cc12 (stereo not drawn)
- IC50 [11]: 124 µM

SMILES: C[C@]12CC[C@H](O)CC1=CCC1C2CC[C@@]2(C)C1CC[C@@H]2C1=CC2(C(=O)N(Cc3ccc(Cl)c(Cl)c3)c3ccccc32)C(C#N)=C(N)N1 (stereo partly drawn)
- IC50 [22]: > 128 µM
- IC50 [23]: 0.3 µM
- IC50 [24]: > 128 µM

SMILES: N=C(N)c1ccc(OCCCCCOc2ccc(C(=N)N)cc2)cc1 [PENTAMIDINE]
- MIC [25]: 5.22 µM (≈ 1.78 µg/mL)

SMILES: COc1ccc(-n2cc(CN3C(=O)C4(C(C#N)=C(N)OC5=C4C(=O)CCC5)c4ccccc43)nn2)cc1 (stereo not drawn)
- MIC [12]: 64 µg/mL (≈ 129 µM)
- MIC [13]: 128 µg/mL (≈ 259 µM)

SMILES: O=C(c1c[nH]c2ccccc12)[C@@H]1[C@@H](c2ccc(Cl)cc2Cl)[C@@H]2CSCN2[C@@]12C(=O)Nc1ccccc12
- IC50 [14]: 7 µM
- IC50 [15]: 9 µM
- IC50 [9]: 6 µM

SMILES: Cc1cc2c(cc1C)C(Cl)=C(C1C3CCCN3C3(C(=O)Nc4ccc([N+](=O)[O-])cc43)C1C(=O)c1ccccc1)CCC2 (stereo not drawn)
- IC50 [26]: 3.8 µM
- IC50 [27]: 5.6 µM
- IC50 [28]: 11 µM
- IC50 [29]: 20 µM
- IC50 [30]: 7.3 µM

SMILES: Cc1ccccc1/C=C1\CNC[C@@]2(C1=O)[C@@H](c1ccccc1C)C1CCCN1[C@]21C(=O)Nc2ccccc21 (stereo partly drawn)
- IC50 [31]: 3.6 µM
- IC50 [32]: 35.8 µM
